In ChEMBL document CHEMBL1201861, “Genomics of Drug Sensitity in Cancer screening data, Wellcome Trust Sanger Institute”:

Assays:
NCCIT = assay: SANGER: Inhibition of human NCCIT cell growth in a cell viability assay.; assay type: functional, cell-based; conditions: Homo sapiens, NCCIT
K052 = assay: cells; assay type: functional, cell-based, Homo sapiens; conditions: Homo sapiens, K052;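 note: Read-out from a cell viability assay, IC50 reflecting suppression of K052 cell growth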
Description: SANGER: Inhibition of human K052 cell growth in a cell viability assay.

NCI-H187 = assay: cells; assay type: functional, cell-based, Homo sapiens; conditions: Homo sapiens, NCI-H187;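 note: growth inhibition of NCI-H187 cells, read out as cell viability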
Description: SANGER: Inhibition of human NCI-H187 cell growth in a cell viability assay.

NCI-H1963 = assay: cells; assay type: functional, cell-based, Homo sapiens; conditions: Homo sapiens, NCI-H1963;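 note: cell growth inhibition of the human line, determined with a cell viability assay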
Description: SANGER: Inhibition of human NCI-H1963 cell growth in a cell viability assay.

CPC-N = assay: cells; assay type: functional, cell-based, Homo sapiens; conditions: Homo sapiens, CPC-N;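 note: growth inhibition of CPC-N cells, with a cell viability assay as the readout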
Description: SANGER: Inhibition of human CPC-N cell growth in a cell viability assay.

TALL-1 = assay: cells; assay type: functional, cell-based, Homo sapiens; conditions: Homo sapiens, TALL-1;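 note: growth inhibition of cultured human TALL-1 cells, read out by a cell viability assay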
Description: SANGER: Inhibition of human TALL-1 cell growth in a cell viability assay.

RL95-2 = assay: cells; assay type: functional, cell-based; conditions: Homo sapiens;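 note: RL95-2 growth inhibition determined through a cell viability readout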
Description: SANGER: Inhibition of human RL95-2 cell growth in a cell viability assay.

SIG-M5 = assay: cells; assay type: functional, cell-based, Homo sapiens; conditions: Homo sapiens, SIG-M5;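 note: cell viability assay read-out, measuring how strongly growth of cultured human SIG-M5 cells is inhibited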
Description: SANGER: Inhibition of human SIG-M5 cell growth in a cell viability assay.

NCI-H524 = assay: cells; assay type: functional, cell-based, Homo sapiens; conditions: Homo sapiens, NCI-H524;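 note: growth inhibition of human NCI-H524 cells, read out through a cell viability assay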
Description: SANGER: Inhibition of human NCI-H524 cell growth in a cell viability assay.

NCI-H64 = assay: cells; assay type: functional, cell-based, Homo sapiens; conditions: Homo sapiens, NCI-H64;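 note: growth inhibition of NCI-H64 cells, read out with a cell viability assay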
Description: SANGER: Inhibition of human NCI-H64 cell growth in a cell viability assay.

PF-382 = assay: cells; assay type: functional, cell-based, Homo sapiens; conditions: Homo sapiens, PF-382
Description: SANGER: Inhibition of human PF-382 cell growth in a cell viability assay.

LU-165 = assay: cells; assay type: functional, cell-based, Homo sapiens; conditions: Homo sapiens, LU-165
Description: SANGER: Inhibition of human LU-165 cell growth in a cell viability assay.

KMS-12-PE = assay: cells; assay type: functional, cell-based, Homo sapiens; conditions: Homo sapiens, KMS-12-PE;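 note: growth inhibition of human KMS-12-PE cells, measured with a cell viability assay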
Description: SANGER: Inhibition of human KMS-12-PE cell growth in a cell viability assay.

NCI-H2171 = assay: cells; assay type: functional, cell-based, Homo sapiens; conditions: Homo sapiens, NCI-H2171;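 note: growth inhibition of human NCI-H2171 cells, read out by a cell viability assay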
Description: SANGER: Inhibition of human NCI-H2171 cell growth in a cell viability assay.

EVSA-T = assay: cells; assay type: functional, cell-based, Homo sapiens; conditions: Homo sapiens, EVSA-T;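 note: growth inhibition of EVSA-T cells, read out with a cell viability assay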
Description: SANGER: Inhibition of human EVSA-T cell growth in a cell viability assay.

BFTC-909 = assay: cells; assay type: functional, cell-based, Homo sapiens; conditions: Homo sapiens, BFTC-909
Description: SANGER: Inhibition of human BFTC-909 cell growth in a cell viability assay.

SiHa = assay: cells; assay type: functional, cell-based, Homo sapiens; conditions: Homo sapiens, SiHa;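 note: Viability-based readout of growth inhibition in SiHa cells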
Description: SANGER: Inhibition of human SiHa cell growth in a cell viability assay.

D-542MG = assay: cells; assay type: functional, cell-based, Homo sapiens; conditions: Homo sapiens, D-542MG
Description: SANGER: Inhibition of human D-542MG cell growth in a cell viability assay.

MDA-MB-361 = assay: cells; assay type: functional, cell-based, Homo sapiens; conditions: Homo sapiens, MDA-MB-361
MKN-28 = assay: cells; assay type: functional, cell-based, Homo sapiens; conditions: Homo sapiens, MKN-28;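 note: cell viability assay read-out, IC50 reflects suppression of growth of human MKN-28 cells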
Description: SANGER: Inhibition of human MKN28 cell growth in a cell viability assay.

NCI-H650 = assay: cells; assay type: functional, cell-based, Homo sapiens; conditions: Homo sapiens, NCI-H650;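 note: growth inhibition of NCI-H650 cells, read out by a viability assay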
Description: SANGER: Inhibition of human NCI-H650 cell growth in a cell viability assay.

MDA-MB-175-VII = assay: cells; assay type: functional, cell-based, Homo sapiens; conditions: Homo sapiens, MDA-MB-175-VII
CAL-85-1 = assay: cells; assay type: functional, cell-based, Homo sapiens; conditions: Homo sapiens, CAL-85-1;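 note: growth inhibition of human CAL-85-1 cells, read out with a cell viability assay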
Description: SANGER: Inhibition of human CAL-85-1 cell growth in a cell viability assay.

EGI-1 = assay: cells; assay type: functional, cell-based, Homo sapiens; conditions: Homo sapiens, EGI-1;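 note: cell viability readout used to gauge growth inhibition of EGI-1 cells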
Description: SANGER: Inhibition of human EGI-1 cell growth in a cell viability assay.

HSC-4 = assay: cells; assay type: functional, cell-based, Homo sapiens; conditions: Homo sapiens, HSC-4;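 note: growth inhibition of human HSC-4 cells, read out with a cell viability assay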
Description: SANGER: Inhibition of human HSC-4 cell growth in a cell viability assay.

DoTc2-4510 = assay: cells; assay type: functional, cell-based, Homo sapiens; conditions: Homo sapiens, DoTc2-4510
H4 = assay: cells; assay type: functional, cell-based, Homo sapiens; conditions: Homo sapiens, H4
Description: SANGER: Inhibition of human H4 cell growth in a cell viability assay.

NUGC-3 = assay: cells; assay type: functional, cell-based, Homo sapiens; conditions: Homo sapiens, NUGC-3;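 note: growth inhibition of human NUGC-3 cells, read out with a cell viability assay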
Description: SANGER: Inhibition of human NUGC-3 cell growth in a cell viability assay.

DMS-273 = assay: cells; assay type: functional, cell-based, Homo sapiens; conditions: Homo sapiens, DMS-273
Description: SANGER: Inhibition of human DMS-273 cell growth in a cell viability assay.

SW1573 = assay: cells; assay type: functional, cell-based, Homo sapiens; conditions: Homo sapiens, SW1573;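 note: growth inhibition of SW1573 cells, read out with a cell viability assay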
Description: SANGER: Inhibition of human SW1573 cell growth in a cell viability assay.

A549 = assay: cells; assay type: functional, cell-based, Homo sapiens; conditions: Homo sapiens, A549;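 note: growth inhibition of A549 cells, read out with a cell viability assay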
Description: SANGER: Inhibition of human A549 cell growth in a cell viability assay.

PC-3 = assay: cells; assay type: functional, cell-based, Homo sapiens; conditions: Homo sapiens, PC-3;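 note: cell viability assay measuring growth inhibition of PC-3 cells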
Description: SANGER: Inhibition of human PC-3 cell growth in a cell viability assay.

HCC1419 = assay: cells; assay type: functional, cell-based, Homo sapiens; conditions: Homo sapiens, HCC1419;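 note: growth inhibition of human HCC1419 cells, read out as cell viability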
Description: SANGER: Inhibition of human HCC1419 cell growth in a cell viability assay.

C32 = assay: cells; assay type: functional, cell-based, Homo sapiens; conditions: Homo sapiens, C32;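 note: cell viability assay, with IC50 reflecting inhibition of C32 cell growth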
Description: SANGER: Inhibition of human C32 cell growth in a cell viability assay.

ME-180 = assay: cells; assay type: functional, cell-based, Homo sapiens; conditions: Homo sapiens, ME-180;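 note: cell viability assay measuring growth inhibition of ME-180 cells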
Description: SANGER: Inhibition of human ME-180 cell growth in a cell viability assay.

SK-MEL3 = assay: cells; assay type: functional, cell-based, Homo sapiens, SK-MEL-3; conditions: Homo sapiens, SK-MEL3;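 note: growth inhibition of human SK-MEL-3 cells, read out with a cell viability assay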
Description: SANGER: Inhibition of human SK-MEL-3 cell growth in a cell viability assay.

GAMG = assay: cells; assay type: functional, cell-based, Homo sapiens; conditions: Homo sapiens, GAMG;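 note: cell growth inhibition measured by a viability assay in the GAMG human cell line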
Description: SANGER: Inhibition of human GAMG cell growth in a cell viability assay.

LoVo = assay: cells; assay type: functional, cell-based, Homo sapiens; conditions: Homo sapiens, LoVo;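 note: growth inhibition of human LoVo cells, read out with a cell viability assay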
Description: SANGER: Inhibition of human LoVo cell growth in a cell viability assay.

OE33 = assay: cells; assay type: functional, cell-based, Homo sapiens; conditions: Homo sapiens, OE33;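 note: growth inhibition of human OE33 cells, measured by a cell viability assay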
Description: SANGER: Inhibition of human OE33 cell growth in a cell viability assay.

SBC-5 = assay: cells; assay type: functional, cell-based, Homo sapiens; conditions: Homo sapiens, SBC-5;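 note: cell viability assay read-out, IC50 is the concentration that inhibits growth of the cells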
Description: SANGER: Inhibition of human SBC-5 cell growth in a cell viability assay.

A2780 = assay: cells; assay type: functional, cell-based, Homo sapiens; conditions: Homo sapiens, A2780;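 note: growth inhibition of A2780 cells, read out with a cell viability assay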
Description: SANGER: Inhibition of human A2780 cell growth in a cell viability assay.

HuCCT-1 = assay: cells; assay type: functional, cell-based, Homo sapiens, HuCCT1; conditions: Homo sapiens, HuCCT-1;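 note: growth inhibition of HuCCT-1 cells, read out by a cell viability assay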
Description: SANGER: Inhibition of human HuCCT1 cell growth in a cell viability assay.

GCT = assay: cells; assay type: functional, cell-based, Homo sapiens; conditions: Homo sapiens, GCT;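 note: GCT cell line proliferation inhibition, read out with a cell viability assay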
Description: SANGER: Inhibition of human GCT cell growth in a cell viability assay.

KYSE-270 = assay: cells; assay type: functional, cell-based, Homo sapiens; conditions: Homo sapiens, KYSE-270;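 note: cell growth inhibition measured with a viability assay in the human KYSE-270 line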
Description: SANGER: Inhibition of human KYSE-270 cell growth in a cell viability assay.

SCC-25 = assay: cells; assay type: functional, cell-based, Homo sapiens; conditions: Homo sapiens, SCC-25;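 note: growth inhibition of SCC-25 cells, measured with a cell viability assay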
Description: SANGER: Inhibition of human SCC-25 cell growth in a cell viability assay.

A-375 = assay: cells; assay type: functional, cell-based, Homo sapiens; conditions: Homo sapiens, A-375;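 note: growth inhibition of A375 cells, read out with a cell viability assay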
Description: SANGER: Inhibition of human A375 cell growth in a cell viability assay.

YAPC = assay: cells; assay type: functional, cell-based, Homo sapiens; conditions: Homo sapiens, YAPC;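 note: growth inhibition of YAPC cells, measured with a cell viability assay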
Description: SANGER: Inhibition of human YAPC cell growth in a cell viability assay.

COc1cc2ncn(-c3cc(OCc4ccccc4C(F)(F)F)c(C(N)=O)s3)c2cc1OC [GW843682X]
IC50 (NCCIT): 0.0599 µM
IC50 (K052): 0.0354 µM
IC50 (NCI-H187): 0.0233 µM
IC50 (NCI-H1963): 0.0138 µM
IC50 (CPC-N): 0.0412 µM
IC50 (TALL-1): 0.013 µM
IC50 (RL95-2): 0.0113 µM
IC50 (SIG-M5): 0.021 µM
IC50 (NCI-H524): 0.0654 µM
IC50 (NCI-H64): > 0.256 µM
IC50 (PF-382): 0.0334 µM
IC50 (LU-165): > 0.256 µM
IC50 (KMS-12-PE): > 0.256 µM
IC50 (NCI-H2171): > 0.256 µM
IC50 (EVSA-T): 0.237 µM

Cc1ccc(-c2c(C(=O)CCl)n(CCCO)c3ncnc(N)c23)cc1
IC50 (NCCIT): > 4 µM
IC50 (K052): > 4 µM
IC50 (NCI-H187): > 4 µM
IC50 (NCI-H1963): > 4 µM
IC50 (CPC-N): > 4 µM
IC50 (TALL-1): > 4 µM
IC50 (RL95-2): > 4 µM
IC50 (SIG-M5): > 4 µM
IC50 (NCI-H524): > 4 µM
IC50 (NCI-H64): > 4 µM
IC50 (PF-382): 1.22 µM
IC50 (LU-165): > 4 µM
IC50 (KMS-12-PE): > 4 µM
IC50 (NCI-H2171): > 4 µM
IC50 (EVSA-T): 2.4 µM

CO[C@H]1C[C@@H]2CC[C@@H](C)[C@@](O)(O2)C(=O)C(=O)N2CCCC[C@H]2C(=O)O[C@H]([C@H](C)C[C@@H]2CC[C@@H](OC(=O)C(C)(CO)CO)[C@H](OC)C2)CC(=O)[C@H](C)/C=C(\C)[C@@H](O)[C@@H](OC)C(=O)[C@H](C)C[C@H](C)/C=C/C=C/C=C/1C [TEMSIROLIMUS]
IC50 (BFTC-909): > 0.2 µM
IC50 (SiHa): > 0.2 µM
IC50 (D-542MG): 0.0779 µM
IC50 (MDA-MB-361): > 0.2 µM
IC50 (MKN-28): > 0.2 µM
IC50 (NCI-H650): > 0.2 µM
IC50 (MDA-MB-175-VII): > 0.2 µM
IC50 (CAL-85-1): > 0.2 µM
IC50 (EGI-1): 0.022 µM
IC50 (HSC-4): < 0.000781 µM
IC50 (DoTc2-4510): > 0.2 µM
IC50 (H4): 0.00107 µM
IC50 (NUGC-3): 0.0235 µM
IC50 (DMS-273): > 0.2 µM
IC50 (SW1573): > 0.2 µM
IC50 (A549): 0.0202 µM
IC50 (PC-3): 0.00914 µM
IC50 (HCC1419): 0.0258 µM
IC50 (C32): 0.0466 µM
IC50 (ME-180): 0.109 µM
IC50 (SK-MEL3): > 0.2 µM
IC50 (GAMG): 0.00382 µM
IC50 (LoVo): > 0.2 µM
IC50 (OE33): > 0.2 µM
IC50 (SBC-5): 0.103 µM
IC50 (A2780): 0.00588 µM
IC50 (HuCCT-1): > 0.2 µM
IC50 (GCT): > 0.2 µM
IC50 (KYSE-270): 0.164 µM
IC50 (SCC-25): > 0.2 µM
IC50 (A-375): > 0.2 µM
IC50 (YAPC): > 0.2 µM

COc1cc(-c2nn([C@H]3CC[C@H](N4CCN(C(C)=O)CC4)CC3)c3ncnc(N)c23)ccc1NC(=O)c1cc2ccccc2n1C
IC50 (NCCIT): > 5.12 µM
IC50 (K052): > 5.12 µM
IC50 (NCI-H187): > 5.12 µM
IC50 (NCI-H1963): > 5.12 µM
IC50 (CPC-N): > 5.12 µM
IC50 (TALL-1): > 5.12 µM
IC50 (RL95-2): 0.379 µM
IC50 (SIG-M5): > 5.12 µM
IC50 (NCI-H524): > 5.12 µM
IC50 (NCI-H64): > 5.12 µM
IC50 (PF-382): > 5.12 µM
IC50 (LU-165): > 5.12 µM
IC50 (KMS-12-PE): > 5.12 µM
IC50 (NCI-H2171): > 5.12 µM
IC50 (EVSA-T): > 5.12 µM

OCCCNc1cc(-c2ccnc(Nc3cccc(Cl)c3)n2)ccn1
IC50 (NCCIT): 0.0485 µM
IC50 (K052): > 0.256 µM
IC50 (NCI-H187): > 0.256 µM
IC50 (NCI-H1963): 0.0931 µM
IC50 (CPC-N): > 0.256 µM
IC50 (TALL-1): 0.0941 µM
IC50 (RL95-2): 0.177 µM
IC50 (SIG-M5): 0.0299 µM
IC50 (NCI-H524): > 0.256 µM
IC50 (NCI-H64): 0.0903 µM
IC50 (PF-382): 0.104 µM
IC50 (LU-165): > 0.256 µM
IC50 (KMS-12-PE): > 0.256 µM
IC50 (NCI-H2171): > 0.256 µM
IC50 (EVSA-T): 0.135 µM
